Source: the supplement of paper PMC4862054

How the values were obtained:
Assay in all cases: drug sensitivity score (DSS), CellTox Green (DSS (AUC-based score)); higher = stronger drug effect (viability inhibition or cytotoxicity); extreme values may be limits of the assay
Settings in all cases: incubation time: 72 h
MDA-MB-453 = system: MDA-MB-453
Summary of the method: (§1)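 Breast cancer cell lines (20 µl suspension) were seeded into 384-well plates holding compound at 5 concentrations in 10-fold steps over a compound-specific 10,000-fold range, then incubated 72 h. CellTox Green fluorescence (485/520 nm) was read first, then CellTiter-Glo luminescence after 10 min at room temperature. Each plate was normalised to 0.1 % DMSO and a positive kill control. The drug sensitivity score was calculated from the area under the fitted dose-response curve.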

MDA-MB-468 = system: MDA-MB-468
Summary of the method: as §1

MDA-MB-436 = system: MDA-MB-436
Summary of the method: as §1

Hs578T = system: Hs578T
Summary of the method: as §1

HCC1937 = system: HCC1937
Summary of the method: as §1

BT-474 = system: BT-474
Summary of the method: as §1

BT-549 = system: BT-549
Summary of the method: as §1

CAL-120 = system: CAL-120
Summary of the method: as §1

MDA-MB-231 = system: MDA-MB-231
Summary of the method: as §1

MFM-223 = system: MFM-223
Summary of the method: as §1

CAL-148 = system: CAL-148
Summary of the method: as §1

HCC1599 = system: HCC1599
Summary of the method: as §1

CAL-51 = system: CAL-51
Summary of the method: as §1

DU-4475 = system: DU-4475
Summary of the method: as §1

CAL-85-1 = system: CAL-85-1
Summary of the method: as §1

HDQ-P1 = system: HDQ-P1
Summary of the method: as §1

HCC1143 = system: HCC1143
Summary of the method: as §1

MCF-10A = system: MCF-10A
Summary of the method: as §1

Row | SMILES | drug sensitivity score (MDA-MB-453) | drug sensitivity score (MDA-MB-468) | drug sensitivity score (MDA-MB-436) | drug sensitivity score (Hs578T) | drug sensitivity score (HCC1937) | drug sensitivity score (BT-474) | drug sensitivity score (BT-549) | drug sensitivity score (CAL-120) | drug sensitivity score (MDA-MB-231) | drug sensitivity score (MFM-223) | drug sensitivity score (CAL-148) | drug sensitivity score (HCC1599) | drug sensitivity score (CAL-51) | drug sensitivity score (DU-4475) | drug sensitivity score (CAL-85-1) | drug sensitivity score (HDQ-P1) | drug sensitivity score (HCC1143) | drug sensitivity score (MCF-10A)
1 | CS(=O)(=O)OCCCCOS(C)(=O)=O [Busulfan] | 0 | 3.07 | 0 | 0 | 0 | 0 | 0 | 0 | 0 | 0 | 0 | 0 | 0 | 0 | 0 | 2.69 | 0 | 0
2 | C#Cc1cccc(Nc2ncnc3cc(OC)c(OCCCCCCC(=O)NO)cc23)c1 [CUDC-101] | 4.37 | 13 | 5.42 | 2.25 | 0 | 6.29 | 0 | 3.78 | 12.7 | 5.86 | 8.84 | 0 | 6.83 | 2.65 | 20.1 | 0 | 0 | 1.27
3 | COc1cccc2c1C(=O)c1c(O)c3c(c(O)c1C2=O)C[C@@](O)(C(C)=O)C[C@@H]3O[C@H]1C[C@H](N)[C@H](O)[C@H](C)O1 [Daunorubicin] | 0 | 4.94 | 1.42 | 0 | 0 | 0 | 0 | 0 | 0 | 0 | 0 | 0 | 5.74 | 0 | 0 | 0 | 0 | 0
4 | CN1CCN(c2ccc3nc(-c4c(N)c5c(F)cccc5[nH]c4=O)[nH]c3c2)CC1 [Dovitinib] | 0 | 0 | 0 | 4.14 | 0 | 0 | 0 | 0 | 0.731 | 0 | 0 | 0 | 0 | 0 | 0 | 0 | 0 | 0
5 | C[C@@H]1C=C2C(=O)O[C@@H]3CC[C@H](C1)[C@]23O [Galiellalactone] | 0 | 0 | 0 | 0 | 0 | 0 | 0 | 0 | 0 | 0 | 0 | 0 | 0 | 0 | 1.02 | 0 | 0 | 0
6 | COC1=C2C[C@@H](C)C[C@H](OC)[C@H](O)[C@@H](C)/C=C(\C)[C@H](OC(N)=O)[C@@H](OC)/C=C\C=C(/C)C(=O)NC(=CC1=O)C2=O [Geldanamycin] | 0 | 25 | 0 | 0 | 6.9 | 2.54 | 0 | 0 | 4.3 | 2.69 | 0 | 0 | 1.35 | 0.88 | 6.66 | 0 | 0 | 7.09
7 | CS(=O)(=O)CCNCc1ccc(-c2ccc3ncnc(Nc4ccc(OCc5cccc(F)c5)c(Cl)c4)c3c2)o1 [Lapatinib] | 1.15 | 0 | 0 | 0 | 2.25 | 0 | 0 | 0 | 1.62 | 0 | 2.94 | 0 | 0 | 0 | 0 | 0 | 0 | 2.1
8 | CCOc1cc2ncc(C#N)c(Nc3ccc(OCc4ccccn4)c(Cl)c3)c2cc1NC(=O)/C=C/CN(C)C [Neratinib] | 0 | 9.51 | 0 | 0 | 0 | 4.09 | 0 | 0 | 4.21 | 0 | 0.237 | 0 | 0 | 0 | 3.47 | 0 | 0 | 0
9 | COc1ccc(C2=N[C@@H](c3ccc(Cl)cc3)[C@@H](c3ccc(Cl)cc3)N2C(=O)N2CCNC(=O)C2)c(OC(C)C)c1 [Nutlin-3] | 0 | 0 | 0 | 0 | 2.28 | 0 | 0 | 0 | 0 | 0 | 1.15 | 0 | 13.1 | 0 | 0 | 0 | 0 | 0
10 | COC1=CC(c2cc3ccccc3[nH]2)=N/C1=C\c1[nH]c(C)cc1C [Obatoclax] | 0 | 0 | 0 | 0 | 0 | 0 | 0 | 0 | 12.7 | 0 | 0 | 0 | 6.54 | 0 | 0 | 0 | 0 | 0
11 | COC(=O)C[C@](O)(CCCC(C)(C)O)C(=O)O[C@@H]1C(OC)=C[C@]23CCCN2CCc2cc4c(cc2[C@H]13)OCO4 [Omacetaxine] | 0 | 3.61 | 1.54 | 17.1 | 0 | 0.916 | 4.27 | 1.24 | 7.01 | 18.3 | 6.49 | 0 | 0 | 0 | 29 | 3.97 | 0 | 13.3
12 | CC(=O)O[C@H]1C(=O)[C@@]2(C)[C@H]([C@H](OC(=O)c3ccccc3)[C@]3(O)C[C@H](OC(=O)[C@H](O)[C@@H](NC(=O)c4ccccc4)c4ccccc4)C(C)=C1C3(C)C)[C@]1(OC(C)=O)CO[C@@H]1C[C@@H]2O [Paclitaxel] | 0 | 26.9 | 7.09 | 20.3 | 0 | 12.7 | 9.38 | 2.71 | 25.5 | 13.7 | 7.75 | 0 | 22.7 | 0 | 23.2 | 0 | 0 | 21.4
13 | O=C(c1ccc(OCCN2CCCCC2)cc1)c1c(-c2ccc(O)cc2)sc2cc(O)ccc12 [Raloxifene] | 0 | 0 | 0 | 2.23 | 0 | 0 | 0 | 1.42 | 0 | 0 | 0 | 0.798 | 0 | 0 | 0 | 1.26 | 0 | 0
14 | C[C@@H]1CCN(C(=O)CC#N)C[C@@H]1N(C)c1ncnc2[nH]ccc12 [Tofacitinib] | 0 | 0 | 0 | 0 | 0 | 0 | 0 | 0 | 0 | 0 | 0 | 0 | 0 | 0 | 0 | 0 | 0 | 0
15 | CCCC(CCC)C(=O)O [Valproic acid] | 0 | 0 | 0 | 0 | 0 | 0 | 0 | 0 | 0 | 0 | 0 | 0 | 0 | 0 | 0 | 0 | 0 | 0
16 | FC(F)c1nc2ccccc2n1-c1nc(N2CCOCC2)nc(N2CCOCC2)n1 [ZSTK474] | 0 | 0 | 0 | 0 | 0 | 0.64 | 0 | 0 | 0 | 3.44 | 0 | 0 | 0 | 0 | 0 | 0 | 0 | 0
